{
  "source": "patent US8722014B2",
  "about": "“1 H-[1, 2, 3] triazole substituted amino acids and uses thereof” (Washington University, priority 2009, dated 2014)",
  "key": {"[1]": {"system": "subcutaneous 9L gliosarcoma tumor", "protocol": "(§1) MicroPET imaging studies were performed in 2 rats implanted with subcutaneous 9L tumors and 1 rat implanted with an intracranial tumor. The subcutaneous implantations were performed as in the biodistribution studies except that the tumors were allowed to grow for 11 days prior to imaging. The intracranial tumor was implanted in the left midcerebrum using a template method as described previously in La Regina, M. C., et al., Lab. Anim. 34: 265-271, 2000, using a total of 5×10^4 cells suspended in 5 µL total volume. […] Computed axial tomography (CT) images were acquired with a MicroCAT II System (ImTek Inc., Knoxville, Tenn.), and PET data were acquired with MicroPET-FOCUS 120 and 220 scanners (Concorde MicroSystems Knoxville Tenn., USA) for 120 minutes after the intravenous tail vein injection of 0.24 to 0.31 mCi of (S)-[^18F]4. The PET and CT images were fused and analyzed using an Amira software package (Carlsbad Calif., USA), and time-activity curves were generated using ASIPro PET data analysis software (Concorde MicroSystems, Knoxville Tenn., USA)."}, "[2]": {"system": "intracranial 9L gliosarcoma tumor", "protocol": "as §1"}, "[3]": {"system": "subcutaneous 9L gliosarcoma tumors", "protocol": "Biodistribution studies were performed with both enantiomers, (R)-[^18F]4 and (S)-[^18F]4, using Fischer 344 rats (Charles River Laboratories, Wilmington Mass., USA) implanted with subcutaneous 9L gliosarcoma tumors. The tumors were implanted by subcutaneous injection of a suspension of approximately 1×10^69L gliosarcoma cells into the flanks of the rats. The tumors were allowed to grow for 3 weeks prior to the study. The rats were allowed food and water ad libitum prior to the biodistribution study. Anesthesia was achieved using a mixture of 1% isoflurane in oxygen, and the radiolabeled amino acid (R)-[^18F]4 or (S)-[^18F]4 was injected intravenously through a tail vein. The animals were euthanized in groups of four for each enantiomer at 5, 30 or 60 minutes after injection. The organs and tissues of interest and the tumors were dissected and weighed, and the amounts of activity were measured and decay corrected to the time of injection with a gamma counter. Standards for the doses were also measured with a gamma counter, and the data were normalized as the percent of total dose per gram of tissue (% ID/g) for each sample. The data were analyzed using GraphPad Prism software with 1-way ANOVAs for each enantiomer at each time point with Bonferroni post-tests. The tumor and brain uptake of radioactivity was directly compared for both enantiomers at each time point with a 2-way ANOVA with Bonferroni post-test. p-values less than or equal to 0.05 were considered statistically significant."}, "[4]": {"settings": "post injection, subcutaneous tumor"}, "[5]": {"settings": "post injection, intracranial tumor"}},
  "note": "Several values for one entry are separate records, joined by “and”; a condition that tells them apart may be missing. Equal values may be shown once. Read-outs that look alike come from different tables or passages of the source.",
  "data": [
    {"smiles": "Cl.N[C@@H](Cc1cn(CC[18F])nn1)C(=O)O", "note": "[(S)-[^18F]4, (S)-2-amino-3-[1-(2-fluoroethyl)-1H-[1,2,3]triazol-4-yl]propanoic acid hydrochloride salt-[^18F]]", "values": [
      {"measurement": "tumor to bone (spinal column) ratio", "setting": "[1]; 30 min, MicroPET", "value": 2.5},
      {"measurement": "tumor to paraspinal muscle uptake ratio", "setting": "[1]; 30 min, MicroPET", "value": "approximately 5.0"},
      {"measurement": "time of peak uptake in adjacent normal tissues", "setting": "[1]; paraspinal muscle and spinal column, post injection", "value": "≤ 5", "unit": "min"},
      {"measurement": "time of maximal tumor uptake", "setting": "[1]; [4]", "value": 32.5, "unit": "min"},
      {"measurement": "time of near maximal tumor uptake", "setting": "[1]; [4]", "value": "approximately 20 min"},
      {"measurement": "maximal standard uptake value (SUV)", "setting": "[1]; subcutaneous 9L tumor", "value": 1.6},
      {"measurement": "maximal tumor to brain ratio", "setting": "[2]; MicroPET study", "value": "approximately 9"},
      {"measurement": "time of peak uptake in adjacent normal tissues", "setting": "[2]; brain, post injection", "value": "≤ 5", "unit": "min"},
      {"measurement": "maximal standard uptake value (SUV)", "setting": "[2]; intracranial tumor", "value": 1.1},
      {"measurement": "time of maximal tumor uptake", "setting": "[2]; [5]", "value": 27.5, "unit": "min"},
      {"measurement": "time of near maximal tumor uptake", "setting": "[2]; [5]", "value": "approximately 20 min"},
      {"measurement": "biodistribution: blood", "setting": "[3]; 5 min after i.v. injection", "value": "0.98 ± 0.152", "unit": "% ID/g"},
      {"measurement": "biodistribution: bone", "setting": "[3]; 5 min after i.v. injection", "value": "0.47 ± 0.065", "unit": "% ID/g"},
      {"measurement": "biodistribution: brain", "setting": "[3]; 5 min after i.v. injection", "value": "0.08 ± 0.011", "unit": "% ID/g"},
      {"measurement": "biodistribution: fat", "setting": "[3]; 5 min after i.v. injection", "value": "0.09 ± 0.020", "unit": "% ID/g"},
      {"measurement": "biodistribution: heart", "setting": "[3]; 5 min after i.v. injection", "value": "0.43 ± 0.048", "unit": "% ID/g"},
      {"measurement": "biodistribution: kidney", "setting": "[3]; 5 min after i.v. injection", "value": "11.02 ± 1.224", "unit": "% ID/g"},
      {"measurement": "biodistribution: large intestine", "setting": "[3]; 5 min after i.v. injection", "value": "0.14 ± 0.012", "unit": "% ID/g"},
      {"measurement": "biodistribution: liver", "setting": "[3]; 5 min after i.v. injection", "value": "0.34 ± 0.035", "unit": "% ID/g"},
      {"measurement": "biodistribution: lung", "setting": "[3]; 5 min after i.v. injection", "value": "0.87 ± 0.117", "unit": "% ID/g"},
      {"measurement": "biodistribution: muscle", "setting": "[3]; 5 min after i.v. injection", "value": "0.18 ± 0.030", "unit": "% ID/g"},
      {"measurement": "biodistribution: pancreas", "setting": "[3]; 5 min after i.v. injection", "value": "2.75 ± 0.634", "unit": "% ID/g"},
      {"measurement": "biodistribution: salivary gland", "setting": "[3]; 5 min after i.v. injection", "value": "0.74 ± 0.043", "unit": "% ID/g"},
      {"measurement": "biodistribution: small intestine", "setting": "[3]; 5 min after i.v. injection", "value": "0.69 ± 0.076", "unit": "% ID/g"},
      {"measurement": "biodistribution: spleen", "setting": "[3]; 5 min after i.v. injection", "value": "0.72 ± 0.054", "unit": "% ID/g"},
      {"measurement": "biodistribution: testes", "setting": "[3]; 5 min after i.v. injection", "value": "0.21 ± 0.013", "unit": "% ID/g"},
      {"measurement": "biodistribution: thyroid", "setting": "[3]; 5 min after i.v. injection", "value": "0.71 ± 0.117% of total dose per organ"},
      {"measurement": "biodistribution: tumor", "setting": "[3]; 5 min after i.v. injection", "value": "0.47 ± 0.069", "unit": "% ID/g"},
      {"measurement": "tumor:brain ratio", "setting": "[3]; 5 min after i.v. injection", "value": 5.9},
      {"measurement": "tumor bone (femur) ratio", "setting": "[3]; 30 min, biodistribution study", "value": 2.3},
      {"measurement": "tumor to muscle ratio", "setting": "[3]; 30 min, biodistribution study", "value": 4.7},
      {"measurement": "biodistribution: blood", "setting": "[3]; 30 min after i.v. injection", "value": "0.47 ± 0.101", "unit": "% ID/g"},
      {"measurement": "biodistribution: bone", "setting": "[3]; 30 min after i.v. injection", "value": "0.36 ± 0.068", "unit": "% ID/g"},
      {"measurement": "biodistribution: brain", "setting": "[3]; 30 min after i.v. injection", "value": "0.06 ± 0.008", "unit": "% ID/g"},
      {"measurement": "biodistribution: fat", "setting": "[3]; 30 min after i.v. injection", "value": "0.05 ± 0.010", "unit": "% ID/g"},
      {"measurement": "biodistribution: heart", "setting": "[3]; 30 min after i.v. injection", "value": "0.38 ± 0.066", "unit": "% ID/g"},
      {"measurement": "biodistribution: kidney", "setting": "[3]; 30 min after i.v. injection", "value": "11.41 ± 1.939", "unit": "% ID/g"},
      {"measurement": "biodistribution: large intestine", "setting": "[3]; 30 min after i.v. injection", "value": "0.15 ± 0.028", "unit": "% ID/g"},
      {"measurement": "biodistribution: liver", "setting": "[3]; 30 min after i.v. injection", "value": "0.43 ± 0.091", "unit": "% ID/g"},
      {"measurement": "biodistribution: lung", "setting": "[3]; 30 min after i.v. injection", "value": "0.83 ± 0.179", "unit": "% ID/g"},
      {"measurement": "biodistribution: muscle", "setting": "[3]; 30 min after i.v. injection", "value": "0.18 ± 0.037", "unit": "% ID/g"},
      {"measurement": "biodistribution: pancreas", "setting": "[3]; 30 min after i.v. injection", "value": "2.20 ± 0.747", "unit": "% ID/g"},
      {"measurement": "biodistribution: salivary gland", "setting": "[3]; 30 min after i.v. injection", "value": "0.66 ± 0.139", "unit": "% ID/g"},
      {"measurement": "biodistribution: small intestine", "setting": "[3]; 30 min after i.v. injection", "value": "0.54 ± 0.073", "unit": "% ID/g"},
      {"measurement": "biodistribution: spleen", "setting": "[3]; 30 min after i.v. injection", "value": "0.75 ± 0.123", "unit": "% ID/g"},
      {"measurement": "biodistribution: testes", "setting": "[3]; 30 min after i.v. injection", "value": "0.17 ± 0.033", "unit": "% ID/g"},
      {"measurement": "biodistribution: thyroid", "setting": "[3]; 30 min after i.v. injection", "value": "0.44 ± 0.102% of total dose per organ"},
      {"measurement": "biodistribution: tumor", "setting": "[3]; 30 min after i.v. injection", "value": "0.83 % ID/g and 0.83 ± 0.142 % ID/g"},
      {"measurement": "tumor:brain ratio", "setting": "[3]; 30 min after i.v. injection", "value": 14.6},
      {"measurement": "tumor to lung ratio", "setting": "[3]; 60 min", "value": 1.3},
      {"measurement": "tumor to spleen ratio", "setting": "[3]; 60 min", "value": 1.5},
      {"measurement": "tumor to normal tissue ratios", "setting": "[3]; 60 min, except in the lung and the spleen", "value": "at least 2"},
      {"measurement": "biodistribution: blood", "setting": "[3]; 60 min after i.v. injection", "value": "0.23 ± 0.015", "unit": "% ID/g"},
      {"measurement": "biodistribution: bone", "setting": "[3]; 60 min after i.v. injection", "value": "0.23 ± 0.011", "unit": "% ID/g"},
      {"measurement": "biodistribution: brain", "setting": "[3]; 60 min after i.v. injection", "value": "0.05 ± 0.001", "unit": "% ID/g"},
      {"measurement": "biodistribution: fat", "setting": "[3]; 60 min after i.v. injection", "value": "0.04 ± 0.007", "unit": "% ID/g"},
      {"measurement": "biodistribution: heart", "setting": "[3]; 60 min after i.v. injection", "value": "0.30 ± 0.011", "unit": "% ID/g"},
      {"measurement": "biodistribution: kidney", "setting": "[3]; 60 min after i.v. injection", "value": "4.79 ± 0.378", "unit": "% ID/g"},
      {"measurement": "biodistribution: large intestine", "setting": "[3]; 60 min after i.v. injection", "value": "0.10 ± 0.012", "unit": "% ID/g"},
      {"measurement": "biodistribution: liver", "setting": "[3]; 60 min after i.v. injection", "value": "0.32 ± 0.021", "unit": "% ID/g"},
      {"measurement": "biodistribution: lung", "setting": "[3]; 60 min after i.v. injection", "value": "0.56 ± 0.085", "unit": "% ID/g"},
      {"measurement": "biodistribution: muscle", "setting": "[3]; 60 min after i.v. injection", "value": "0.16 ± 0.006", "unit": "% ID/g"},
      {"measurement": "biodistribution: pancreas", "setting": "[3]; 60 min after i.v. injection", "value": "1.12 ± 0.151", "unit": "% ID/g"},
      {"measurement": "biodistribution: salivary gland", "setting": "[3]; 60 min after i.v. injection", "value": "0.36 ± 0.037", "unit": "% ID/g"},
      {"measurement": "biodistribution: small intestine", "setting": "[3]; 60 min after i.v. injection", "value": "0.31 ± 0.024", "unit": "% ID/g"},
      {"measurement": "biodistribution: spleen", "setting": "[3]; 60 min after i.v. injection", "value": "0.47 ± 0.035", "unit": "% ID/g"},
      {"measurement": "biodistribution: testes", "setting": "[3]; 60 min after i.v. injection", "value": "0.11 ± 0.006", "unit": "% ID/g"},
      {"measurement": "biodistribution: thyroid", "setting": "[3]; 60 min after i.v. injection", "value": "0.30 ± 0.024% of total dose per organ"},
      {"measurement": "biodistribution: tumor", "setting": "[3]; 60 min after i.v. injection", "value": "0.72 ± 0.098", "unit": "% ID/g"},
      {"measurement": "tumor:brain ratio", "setting": "[3]; 60 min after i.v. injection", "value": 15.2},
      {"measurement": "magnitude of tumor uptake compared with the (R)-enantiomer", "setting": "[3]; at all 3 time points, p<0.001", "value": "higher"},
      {"measurement": "maximal tumor to brain ratio", "setting": "[3]; biodistribution study", "value": 15}
    ]}
  ]
}
